Assay results: ChEMBL document CHEMBL1158089, “Indoleamine 2,3-dioxygenase inhibitors from the Northeastern Pacific Marine Hydroid Garveia annulata” (J Nat Prod, 2006)

Target: Indoleamine 2,3-dioxygenase 1 (Homo sapiens, UniProt P14902)
Test: Inhibition of human indoleamine 2,3-dioxygenase expressed in Escherichia coli by spectrophotometric activity assay

Sequence of Indoleamine 2,3-dioxygenase 1 (P14902 whole entry): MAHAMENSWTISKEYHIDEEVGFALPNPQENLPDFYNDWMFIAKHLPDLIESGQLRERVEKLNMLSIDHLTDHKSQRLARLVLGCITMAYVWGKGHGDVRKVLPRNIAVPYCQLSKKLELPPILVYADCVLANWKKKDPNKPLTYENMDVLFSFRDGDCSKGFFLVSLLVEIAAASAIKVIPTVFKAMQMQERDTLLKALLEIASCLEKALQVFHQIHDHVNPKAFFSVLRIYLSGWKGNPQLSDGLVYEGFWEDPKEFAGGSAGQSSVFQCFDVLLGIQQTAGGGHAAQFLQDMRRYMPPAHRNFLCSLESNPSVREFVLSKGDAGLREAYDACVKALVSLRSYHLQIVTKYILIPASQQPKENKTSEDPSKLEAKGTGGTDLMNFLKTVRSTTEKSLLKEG

Row | SMILES | Ki
1 | CCC1=C(C)C(=O)c2cc3c(c(O)c2C1=O)C(=O)C(C)(O)C(=O)C3(C)C (stereo not drawn) | 1400 nM
2 | CCc1c(C)cc2c(c1O)C(=O)C1=C(C2=O)C(C)(C)OC1(OC)C(=O)OC (stereo not drawn) [ANNULIN C] | 140 nM
3 | COc1c(C(C)=O)c(C)cc2cc3c(c(O)c12)C(=O)C(C)(C)C(=O)C3(C)C [GARVEATIN C] | 1200 nM
